The subject of experiment [1] is Mus musculus. The experiment is described as follows: Average weight change in mouse after the treatment with 50 mg/kg dose of the compound. Format: functional.
Experiment [2] relates to Mus musculus. As to the kind of experiment: Survivors after the treatment with 25 mg/kg dose for 5 days in 6 mice. Format: functional.
For experiment [3], the system named is Mus musculus. The experiment is described as follows: Average weight change in mouse after the treatment with 200 mg/kg dose of the compound. It is filed as functional.
The subject of experiment [4] is L1210. As to the kind of experiment: Median survival time of inhibitory activity against L1210 tumor cells in mouse at the dose of 50 mg/kg. Format: functional.
For experiment [5], the system named is Mus musculus. As to the kind of experiment: Survivors after the treatment with 100 mg/kg dose for 5 days in 6 mice. Format: functional.
Experiment [6] has as its system L1210. As to the kind of experiment: Median survival time of inhibitory activity against L1210 tumor cells in mouse at the dose of 12.5 mg/kg. Format: functional.
The subject of experiment [7] is Mus musculus. The experiment is described as follows: Survivors after the treatment with 12.5 mg/kg dose for 5 days in 6 mice. Format: functional.
Experiment [8] relates to Mus musculus. The experiment is described as follows: Average weight change in mouse after the treatment with 100 mg/kg dose of the compound. Format: functional.
Experiment [9] concerns Mus musculus. The experiment is described as follows: Average weight change in mouse after the treatment with 12.5 mg/kg dose of the compound. It is filed as functional.
Experiment [10] deals with Mus musculus. The experiment is described as follows: Survivors after the treatment with 200 mg/kg dose for 5 days in 6 mice. It is filed as functional.
Experiment [11] relates to Mus musculus. As to the kind of experiment: Survivors after the treatment with 50 mg/kg dose for 5 days in 6 mice. It is filed as functional.
Experiment [12] relates to L1210. The experiment is described as follows: Median survival time of inhibitory activity against L1210 tumor cells in mice at the dose of 200 mg/kg. It is filed as functional, Mus musculus.
For experiment [13], the system named is L1210. The experiment is described as follows: Median survival time of inhibitory activity against L1210 tumor cells in mouse at the dose of 100 mg/kg. It is filed as functional.
Experiment [14] relates to Mus musculus. The experiment is described as follows: Average weight change in mouse after the treatment with 25 mg/kg dose of the compound. It is filed as functional.
Experiment [15] concerns L1210. As to the kind of experiment: Median survival time of inhibitory activity against L1210 tumor cells in mouse at the dose of 25 mg/kg. Format: functional.

In ChEMBL document CHEMBL1122249, “Synthesis of hypoxanthine, guanine, and 6-thiopurine nucleosides of 6-deoxy-D-allofuranose” (1983) one finds Average weight change, Survivors and T/C data, which are given here for one compound.

`CC(O)[C@H]1O[C@@H](n2cnc3c(S)ncnc32)[C@H](O)[C@@H]1O` (stereo not given in full): the Average weight change in the experiment with Mus musculus [1] is -1.7; in the experiment with Mus musculus [3], -4.4; in the experiment with Mus musculus [8], -3.6; with Mus musculus [9], -1; with Mus musculus [14], -1.4. The Survivors in the experiment with Mus musculus [2], in the experiment with Mus musculus [5], in the experiment with Mus musculus [7], with Mus musculus [10] and with Mus musculus [11] was 6 each time. The T/C was found to be 142% in the experiment with L1210 [4]; 107% in the experiment with L1210 [6]; 148% in the experiment with L1210 [12]; 146% in the experiment on L1210 [13]; 116% with L1210 [15].

A word on the T/C: it is the result in the treated group divided by that in the control group, in per cent.
